Measured values: PMC7391767, “Molecular mechanisms underlying menthol binding and activation of TRPM8 ion channel” (Nature Communications, 2020)
“And” between values parts separate entries of the source, which are not always exact repeats. Equal values may be shown once. “Also recorded” adds a separate entry of the source.

Tests used:
[1] = molecular target: T1, wild-type TRPM8 (Mus musculus, UniProt Q8R4D5); assay: open probability from noise analysis of macroscopic current and single-channel recordings; assay type: cell-based
T1 construct: expressed in transfected cells; host or cells: HEK293T
T1 sequence (Q8R4D5 whole entry): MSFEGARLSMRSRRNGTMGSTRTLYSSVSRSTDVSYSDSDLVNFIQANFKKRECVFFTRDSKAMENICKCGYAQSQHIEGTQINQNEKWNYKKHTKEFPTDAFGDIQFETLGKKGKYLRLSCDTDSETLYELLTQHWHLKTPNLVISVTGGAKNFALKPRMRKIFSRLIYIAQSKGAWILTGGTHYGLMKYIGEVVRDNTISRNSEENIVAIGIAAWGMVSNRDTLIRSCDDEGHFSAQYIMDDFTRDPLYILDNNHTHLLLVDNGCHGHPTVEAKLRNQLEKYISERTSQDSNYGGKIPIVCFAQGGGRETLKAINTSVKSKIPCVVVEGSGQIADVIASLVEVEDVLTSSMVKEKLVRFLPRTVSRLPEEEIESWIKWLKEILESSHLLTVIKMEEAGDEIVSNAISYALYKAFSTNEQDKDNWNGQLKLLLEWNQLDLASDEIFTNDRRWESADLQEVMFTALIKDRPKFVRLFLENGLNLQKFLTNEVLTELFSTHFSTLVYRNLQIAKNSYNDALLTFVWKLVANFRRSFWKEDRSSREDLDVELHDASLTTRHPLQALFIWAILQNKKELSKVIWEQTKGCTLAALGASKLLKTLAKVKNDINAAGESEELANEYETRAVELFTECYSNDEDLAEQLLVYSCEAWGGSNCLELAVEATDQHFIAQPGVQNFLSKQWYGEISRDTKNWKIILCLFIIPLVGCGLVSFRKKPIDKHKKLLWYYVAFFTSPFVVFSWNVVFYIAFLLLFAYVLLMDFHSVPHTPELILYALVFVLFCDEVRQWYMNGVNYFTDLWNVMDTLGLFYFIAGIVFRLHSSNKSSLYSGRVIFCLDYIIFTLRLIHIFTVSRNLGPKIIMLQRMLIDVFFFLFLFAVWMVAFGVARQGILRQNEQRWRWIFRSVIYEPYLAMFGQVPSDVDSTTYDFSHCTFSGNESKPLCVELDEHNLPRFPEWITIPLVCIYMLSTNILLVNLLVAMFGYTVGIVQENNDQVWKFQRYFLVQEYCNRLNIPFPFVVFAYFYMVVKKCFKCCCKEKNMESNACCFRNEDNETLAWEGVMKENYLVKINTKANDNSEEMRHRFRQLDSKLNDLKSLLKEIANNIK
Procedure: (§1) Patch-clamp recordings were performed with a HEKA EPC10 amplifier controlled by PatchMaster software (HEKA). Whole-cell recordings were performed at ±80 mV. Patch pipettes were prepared from borosilicate glass and fire-polished to resistance of ~4 MΩ. For whole-cell recording, serial resistance was compensated by 60%. For single-channel recordings, patch pipettes were fire-polished to a higher resistance of 6-to-10 MΩ and then recorded in the inside-out configuration. To maximize the chance of obtaining a patch with only one channel, single-channel recordings were performed about 8 h after transfection. A solution with 130 mM NaCl, 10 mM glucose, 0.2 mM EDTA, and 3 mM HEPES (pH 7.2) was used in both bath and pipette for either whole-cell or single-channel recordings. Membrane potential was clamped at +80 mV for single-channel recordings. Current was sampled at 10 kHz and filtered at 2.9 kHz. All recordings were performed at room temperature (22 °C) with the maximum variation of 1 °C.
From single-channel recordings, the open probability (Po) was calculated after events detection with a hidden Markov approach in the software QuB[49] (http://www.qub.buffalo.edu/). A dead time of 0.32 ms was imposed. As a complementary approach, Po was also estimated from noise analysis[52] of whole-cell recordings. Briefly, the mean current amplitude (I), the squared deviations in current amplitude from the mean value (σ^2), and the single-channel current (i) were measured experimentally from a membrane patch of ion channels. Then the number of ion channels clamped in that patch (N) was determined as3 N=I^2/i⋅I−σ^2.
The maximum current when each of ion channel is at the open state with a Po of 1 is equal to i × N. Then the open probability was calculated as the ratio between the measured macroscopic current and the maximum current calculated by noise analysis. To estimate channel conductance, current amplitude was estimated from all-point histogram of single-channel recordings.

[2] = molecular target: T1, wild-type TRPM8; assay: whole-cell patch-clamp recording of ligand activation; assay type: cell-based
In short: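 Transiently transfected cells expressing murine TRPM8, recorded 1–2 days post-transfection in whole-cell mode at ±80 mV, 22 °C, with 130 mM NaCl, 10 mM glucose, 0.2 mM EDTA, 3 mM HEPES (pH 7.2) in bath and pipette. Ligands applied by gravity perfusion. EC50 from Hill fit of concentration–response.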

[3] = molecular target: T2, TRPM8 Y1005F (Mus musculus, UniProt Q8R4D5, Y1005F); assay: whole-cell patch-clamp and thermodynamic mutant cycle analysis; assay type: cell-based; details: patch-clamp, peer review file
T2 construct: expressed in transfected cells; host or cells: HEK293T
T2 sequence (Q8R4D5 whole entry Y1005F): as the sequence (Q8R4D5 whole entry) above, with Y1005F counted along it
Procedure: (§2) Murine TRPM8 was used in this study. Point mutations were made by Fast Mutagenesis Kit V2 (SBS Genetech). Primers used to generate point mutations are summarized in Supplementary Table 2.
(§3) HEK293T cells purchased from Kunming Cell Bank, Kunming Institute of Zoology, Chinese Academy of Sciences (ATCC, CRL-3216) were cultured in Dulbecco’s modified Eagle’s medium supplemented with 20 mM L-glutamine and 10% fetal bovine serum. Cells were transiently transfected with cDNA constructs by Lipofectamine 3000 (Life Technologies) following the manufacturer’s protocol. Patch-clamp recordings were performed 1–2 days after transfection.
as §1
Ligands such as menthol and its analogs were perfused to membrane patch by a gravity-driven system (RSC-200, Bio-Logic). Bath and ligand solution were delivered through separate tubes to minimize the mixing of solutions. Patch pipette was placed in front of the perfusion tube outlet.
Data from whole-cell recordings were analyzed in Igor Pro version 6.1 (WaveMatrix). EC50 values were derived from fitting a Hill equation to the concentration–response relationship. […] To distinguish these possibilities, dissociation constant (Kd) for ligand binding was estimated assuming the following gating scheme:1 C0↔KdC1↔LO, where L is the equilibrium constant for the final closed-to-open transition.
To perform thermodynamic cycle analysis, Kd values of four channel-ligand combinations (WT channel, menthol: Kd _1; Mutant channel, menthol: Kd _2; WT channel, menthol analog: Kd _3; Mutant channel, menthol analog: Kd _4) were determined separately. The strength of coupling was determined by the coupling energy (kT multiplied by LnΩ, where k is the Boltzmann constant and T is temperature in Kelvin). LnΩ was calculated by Eq. (2) as[51]2 LnΩ=LnKd_1⋅Kd_4/Kd_2⋅Kd_3.

[4] = tested on: ANAP-incorporated TRPM8 mutants; assay: patch-clamp test of function of ANAP-incorporated TRPM8 mutants; assay type: cell-based, mouse; details: Menthol 1 mM
Procedure: L-ANAP methyl ester was purchased from AsisChem. pANAP vector was purchased from Addgene. ANAP was incorporated into TRPM8 by introducing a TAG amber stop codon mutation as previously reported. Briefly, after co-transfection of both TRPM8 and pANAP vectors, ANAP was directly added to the culture medium to the final concentration of 20 µM. After 1–2 days, ANAP-containing culture medium was completely changed. Cells were further cultured in ANAP-free medium overnight before experiments.
as §1
Supplementary Table 1. ANAP- incorporated TRPM8 mutants. The function of these
ANAP- incorporated mutants was accessed by patch- clamp recordings. Menthol (1 mM)
was perfused to activate a mutant channel.

[5] = molecular target: T3, TRPM8 Y745H (Mus musculus, UniProt Q8R4D5, Y745H); assay: whole-cell patch-clamp recording of menthol activation; assay type: cell-based; details: Y745H mutation
T3 construct: expressed in transfected cells; host or cells: HEK293T
T3 sequence (Q8R4D5 whole entry Y745H): as the sequence (Q8R4D5 whole entry) above, with Y745H counted along it
Procedure: as §2, §3
as §1, with “Membrane potential was clamped at +80 mV for single-channel recordings. Current was sampled at 10 kHz and filtered at 2.9 kHz. All recordings were performed at room temperature (22 °C) with the maximum variation of 1 °C.” left out

For `CC(C)[C@@H]1CC[C@@H](C)C[C@H]1O` [menthol, (−)-menthol], the agonist nature ([1]; noise analysis of macroscopic current, confirmed in single-channel recordings) was “partial agonist”, the “maximum open probability (Po max)” value ([1]; wild-type TRPM8, near saturating concentration (menthol 500 µM)) was 0.81 ± 0.03 and the “L (equilibrium constant between closed and open states upon ligand binding), Ave” value ([2]; WT) was 4.672 and 4.642. The “concentration–response curve value, ave” value ([2]; WT, 1 microM) was 0.025 and 0.02453, the “concentration–response curve value, single recording” value ([2]; WT, 1 microM) was 0.025 and 0.02453 and the “concentration–response curve value, ave” value ([2]; WT, 10 microM) was 0.025 and 0.0249. For the same molecule, the “concentration–response curve value, single recording” value ([2]; WT, 10 microM) was 0.021 and 0.029 and 0.02072 and 0.02909, the “concentration–response curve value, ave” value ([2]; WT, 20 microM) was 0.043 and the “concentration–response curve value, ave” value ([2]; WT, 30 microM) was 0.090 and 0.08976. The “concentration–response curve value, ave” value ([2]; WT, 100 microM) was 0.426 and 0.4264, the “concentration–response curve value, single recording” value ([2]; WT, 100 microM) was 0.426 and 0.453 and 0.400 and 0.4256 and 0.4532 and 0.4003 and the “concentration–response curve value, ave” value ([2]; WT, 500 microM) was 0.760 and 0.7604. For the same molecule, the “concentration–response curve value, single recording” value ([2]; WT, 500 microM) was 0.796 and 0.730 and 0.755 and 0.7302 and 0.7548, the “concentration–response curve value, ave” value ([2]; WT, 1000 microM) was 0.801 and 0.8014 and the “concentration–response curve value, single recording” value ([2]; WT, 1000 microM) was 0.847 and 0.769 and 0.788 and 0.8469 and 0.7692 and 0.7882. The Kd ([2]; WT, calculated from concentration–response curves (EC50 and Po max), read-out: Kd, Ave) was 966 µM, the Hill coefficient ([2]; wild-type TRPM8) was 1.74 ± 0.06 and the EC50 [3] was 498 ± 8.7 µM. For the same molecule, the Menthol activation ([4]; A875ANAP (S5)) was “YES”, the Menthol activation ([4]; D920ANAP (Between S5 and S6)) was “YES” and the Menthol activation ([4]; I962ANAP (S6)) was “YES”. For the same molecule, the Menthol activation ([4]; L774ANAP (S2)) was “YES”, the Menthol activation ([4]; L817ANAP (S3)) was “YES” and the Menthol activation ([4]; L864ANAP (S5)) was “YES”. The Menthol activation ([4]; L939ANAP (Between S5 and S6)) was “YES”, the Menthol activation ([4]; N789ANAP (S2S3 linker)) was “YES” and the Menthol activation ([4]; N821ANAP (S3-S4 linker)) was “YES”. For the same molecule, the Menthol activation ([4]; N852ANAP (S4)) was “YES”, the Menthol activation ([4]; N947ANAP (Between S5 and S6)) was “YES” and the Menthol activation ([4]; P734ANAP (S1)) was “YES”. The Menthol activation ([4]; P952ANAP (Between S5 and S6)) was “YES”, the Menthol activation ([4]; P958ANAP (Between S5 and S6)) was “YES” and the Menthol activation ([4]; S819ANAP (S3-S4 linker)) was “YES”. For the same molecule, the Menthol activation ([4]; S820ANAP (S3-S4 linker)) was “YES”, the Menthol activation ([4]; S823ANAP (S3-S4 linker)) was “YES” and the Menthol activation ([4]; S824ANAP (S4)) was “YES”. The Menthol activation ([4]; S921ANAP (Between S5 and S6)) was “YES”, the Menthol activation ([4]; S966ANAP (S6)) was “YES” and the Menthol activation ([4]; T795ANAP (S2S3 linker)) was “YES”. For the same molecule, the Menthol activation ([4]; V791ANAP (S2S3 linker)) was “YES”, the Menthol activation ([4]; V876ANAP (S5)) was “YES” and the Menthol activation ([4]; W954ANAP (Between S5 and S6)) was “YES”. For the same molecule, the Menthol activation ([4]; Y787ANAP (S2)) was “YES”, the Menthol activation ([4]; Y808ANAP (S3)) was “YES” and the Menthol activation [5] was “barely activated; also recorded: virtually abolished”.
